Test results published in patent publication US20250270159A1, “1-(CYCLOBUTANEMETHYLIDENE)-2, 4, 5-TRIMETHOXYBENZENE COMPOUND AND PREPARATION METHOD AND USE THEREOF” (CHENGDU XINRUI TAIKANG TECHNOLOGY CO., LTD., priority 2023, published 2025).

Key:
[1] = test system: ischemic stroke induced by the filament technique in rats; assay: Acute phase of ischemic stroke induced by the filament technique (MCAO), short-term neurological deficit score; assay type: in vivo; conditions: for mNSS score / Garcia score: 24 h after MCAO modeling; for mNSS score: scale 0-18, higher worse; for Garcia score: scale 3-18, lower worse
Experimental: Zea Longa score was used to determine whether the modeling was successful after 2 h of MCAO surgery, and rats with successful modeling were taken and randomly grouped for administering drugs.
The rats were randomly divided into a sham operation group (Sham group, given a blank emulsion with a volume equal to that of the high-dose CTMB group), a model group (Vehicle group, given a blank emulsion with a volume equal to that of the high-dose CTMB group), a low-dose CTMB group (CTMB-L group, 10 mg/kg), a high-dose CTMB group (CTMB-H group, 20 mg/kg), and an edaravone dexborneol injection concentrated solution group (EDB group, commercially available, 3 mg/kg). 10 rats were included in each group, which were administered by intraperitoneal injection. It should be noted that in the experiment, the mode of administration for rats was intraperitoneal injection, and a ratio of the effective dose of CTMB, the active ingredient in the emulsion injection, to the unit mass of the human body was within a range of 0.2 mg-4.0 mg/kg, which referred to the ratio of the effective dose of CTMB, the active ingredient in the emulsion injection, to the unit mass of the human body during intravenous infusion, which was extrapolated from the effective dose of the rats. Considering the different bioavailability, peak concentration, and peak time of the drug due to different species and different modes of administration, the effective dose of the active ingredient CTMB in the emulsion injection to the unit mass of human body was finally determined to be 0.2 mg-4.0 mg/kg through conversion.
The rats were fasted for 12 h before procedure, and the rats were anesthetized with 10% chloral hydrate (350 mg/kg, i.p.). The rats were fixed in the supine position, and the body temperature was maintained at about 37° C. For neck preparation, a median neck incision was made, the muscle and fascia were separated along the inner edge of the sternocleidomastoid muscle to expose the right side, the common carotid artery (CCA), external carotid artery (ECA), and internal carotid artery (ICA) were separated bluntly, and the lines were disposed of proximally in the CCA proximal end, ICA, and ECA for backup. The CCA proximal end and ECA were ligatured, and an arterial clip was used to temporarily close the ICA, then a small hole was poked at a position of CCA having about 4 mm from the bifurcation with a needle. The filament was inserted into the ICA through the CCA, the arterial clipped on ICA was loosened, and the filament was slowly advanced. When the mark on the filament reached the bifurcation and a slight resistance was felt, the thin wire at ICA was tightened, and saline was used to clean the wound and then suture was performed. The sham procedure was the same as the experimental group except that no filament was inserted. […]
Referring to the Zea Longa Neurologic Function Score (Longa EZ, Weinstein PR, Carlson S, Cummins R. Reversible middle cerebral artery occlusion without craniectomy in rats. Stroke. 1989 January; 20(1):84-91. doi: 10.1161/01.str.20.1.84.), rats were scored after 2 h of procedure when they were awake from anesthesia. […]
The neural function of the rats was comprehensively evaluated after 24 h of modeling using the modified mNSS score and Garcia score, and mNSS scoring criteria was shown in Table 3 and Garcia scoring criteria was shown in Table 4. The rats were evaluated for locomotion, sensation, and climbing, and symmetry of limbs. […]

[2] = test system: neurons of substantia nigra region and striatum of PD mice; assay: HE staining of substantia nigra and striatum of PD mice; assay type: in vivo, C57 mice; conditions: Group D, CTMB 20 mg/kg ip, 4 weeks; compared with model group; FIG. 5-7
Experimental: The mice were randomly divided into a sham operation group (group S, given a blank emulsion with a volume equal to that of the administered group), a model group (group M, given a blank emulsion with a volume equal to that of the administered group), a CTMB group (20 mg/kg, group D), and a levodopa group (levodopa: benserazide hydrochloride=4:1, 12 mg/kg, group L), each group included 10-12 mice, and all of them were administered intraperitoneally.
After completing the evaluation of motor function after 4 weeks of drug administration, the mice were deeply anesthetized, perfused with 20 mL of saline and 20 mL of 4% paraformaldehyde via the heart, and the brains were rapidly severed and extracted from the head, which were then preserved and fixed in 4% paraformaldehyde for 72 h after removal, and then embedded with paraffin to prepare the slices with a thickness of 4 μm for subsequent pathological and histological studies.
Hematoxylin-eosin (HE) staining may be used to observe changes in the pathological condition of brain tissue. […]

COc1cc(OC)c(OC)cc1C=C1CCC1 [CTMB, 1-(cyclobutylidenemethyl)-2,4,5-trimethoxybenzene]
toxic side effects associated with administration ([1]; 10 and 20 mg/kg ip, MCAO rats, acute phase test): No toxic side effects | mNSS score ([1]; CTMB-H 20 mg/kg ip): 6.65 ± 2.30^##, ** | Garcia score ([1]; CTMB-H 20 mg/kg ip): 10.05 ± 1.81^##, ** | mNSS score ([1]; CTMB-L 10 mg/kg ip): 6.88 ± 2.26^##, ** | Garcia score ([1]; CTMB-L 10 mg/kg ip): 9.65 ± 1.02^##, * | degree of pathological damage to the substantia nigra region and striatum [2]: reduced
